Converted amounts (≈) assume the structure as drawn.
Key:
[1] = cited from earlier work
[2] = cited from earlier work; remark: listed apart in the source
[3] = Measurement of NOB solubility in CAGE; type: physicochemical; details: shaken at 37 °C for 48 h, HPLC
Method: An excess amount of NOB was added to CAGE in test tubes and the tubes were shaken at 37 °C for 48 h. The supernatants were then collected and filtered through a filter with a pore size of 0.20 µm (Toyo Roshi Co. Ltd., Tokyo, Japan), and the concentration of NOB was determined by high-pressure liquid chromatography (HPLC) (Shimadzu LC-2010C, Kyoto, Japan) with the following conditions: mobile phase 0.1% formic acid in water (solvent A) and acetonitrile (solvent B) (0–20 min, 52.5–75% solvent A); flow rate 1 mL/min; injection volume 5 µL; column Develosil ODS-HG-5, 4.6 mm × 150 mm, 5 µm particle size; column temperature 40 °C; UV detector wavelength 285 nm.

blood glucose level [4] = test: Hypoglycemic activity after transdermal administration to SD rats; type: in vivo; details: transdermal with CAGE, 10 mg/kg
Method: The hypoglycemic activity of the NOB/CAGE sample was evaluated following the same protocol used for the transdermal tests in vivo using SD rats as described in Section 2.4. A 5 mg/mL solution of PBS, NOB/PBS, or NOB/CAGE was transdermally administered to the donor area of the rats (10 mg/kg) and blood was collected from the tail vein after 1, 2, 4, 8, 12, and 24 h. Blood glucose was measured using a commercial glucose meter (ACCU-CHEK® ST Meter, ACCU-CHEK® ST Strip, Roche Diagnostics K.K., Tokyo, Japan) (n = 5).

[5] = In vitro skin penetration test using Franz diffusion cell; type: in vitro ADME, Yucatan micropig; details: 24 h
Method: Porcine skin stored at −70 °C was thawed at 37 °C for 30 min, and then cut into a circle 3.5 cm in diameter. The adipose tissue of this skin was scraped off with a razor. The skin was sandwiched between the acceptor side of a Franz diffusion cell (FDC) (PermeGear, Hellertown, PA, USA) filled with phosphate buffered saline (PBS) solution, and the donor of the FDC, and both sides of the FDC were fixed with a clip. The skin was stretched without wrinkles and the acceptor was degassed. Then, 300 μL of 1, 2, 5, 7, and 10 mg/mL NOB/PBS or NOB/CAGE were added to the donor and incubated for 24 h at 37 °C. After incubation, samples in the donor were removed and the skin was washed up to 5 times with PBS solution. The skin was removed from the FDC and punched out according to the administration area. A tape stripping method was used with ten tapes to obtain parts of the stratum corneum (SC). The remaining epidermis was scraped with a razor and separated from the dermis. NOB was eluted from these tissue samples using methanol: PBS = 1:1 for 24 h. The solutions were centrifuged at 3,000 rpm at 25 °C for 3 min and the supernatant was passed through a membrane filter (pore size: 0.20 µm, Toyo Roshi Co. Ltd.). The amount of NOB in the SC, epidermis, dermis, and acceptor was quantitatively determined by HPLC as described in Section 2.1.2. […] To compare the permeation ability of CAGE with other skin permeation reagents, additional 24-h transdermal tests were performed using 1 mg/mL NOB/diethylene glycol monoethyl ether (DGME): PBS = 1:1 (v:v) and NOB/ethanol (EtOH): […]

[6] = design: method as in PMID 27076076; details: oral, 200 mg/kg; cited from earlier work
[7] = design: method as in PMID 30682442; details: cited from earlier work
[8] = design: method as in doi:10.2525/ecb.56.161, PMID 18951932; details: cited from earlier work
blood glucose level [9] = system: blood glucose level; design: method as in PMID 28337858; details: transdermal insulin delivery using CAGE; cited from earlier work

## COc1ccc(-c2cc(=O)c3c(OC)c(OC)c(OC)c(OC)c3o2)cc1OC [NOB, Nobiletin]
[1]; oral administration of NOB crystals to rats, ref 14 (Fig. 1: Onoue et al.[11])
  Oral bioavailability in rat: 0.85%
[2]; in water, ref Onoue et al.[11]
  Solubility of NOB in water: 16 µg/mL
[2]; ref 14 (Fig. 1: Onoue et al.[11])
  Water solubility: 16.2 µg/mL
[3]
  solubility at 48 h: 7200 µg/mL (≈ 17.9 mM)
Blood glucose level [4]
  Decrease in the blood glucose level over 12 h: at most 34%
[5]; 1 mg/mL NOB in 50:50 (v:v) DGME: PBS
  Ratio of NOB in deeper fractions (epidermis + dermis + acceptor) to total NOB transferred to the skin: 41%
[5]; 1 mg/mL NOB in 50:50 (v:v) EtOH: PBS
  Ratio of NOB in deeper fractions (epidermis + dermis + acceptor) to total NOB transferred to the skin: 54%
[5]; 1 mg/mL NOB in CAGE
  Ratio of NOB in deeper fractions (epidermis + dermis + acceptor) to total NOB transferred to the skin: 77%
[5]; 1 mg/mL NOB in PBS
  Ratio of NOB in deeper fractions (epidermis + dermis + acceptor) to total NOB transferred to the skin: 28%
[5]; 1 mg/mL NOB
  Order of amount of NOB detected in the acceptor by solvent: CAGE > EtOH: PBS > PBS > DGME
[6]
  Blood glucose level accompanied with insulin injection: caused a drop in the BGL
  Weight gain: significantly suppressed weight gain

## COc1ccc(-c2cc(=O)c3c(OC)c(OC)c(OC)c(OC)c3o2)cc1OC [crystalline NOB, Nobiletin]
[1]; oral, 2 mg/kg
  Oral BA of crystalline NOB: 0.46%

## O=c1c(O)c(-c2ccc(O)cc2)oc2cc(O)cc(O)c12 [kaempferol, reference compound]
[2]
  Solubility in water: 180 µg/mL (≈ 0.629 mM)
[7]
  BA: 2%

## O=c1c(O)c(-c2ccc(O)c(O)c2)oc2cc(O)cc(O)c12 [quercetin, reference compound]
[2]
  Solubility in water: 1.4 µg/mL (≈ 0.00463 mM)
[8]
  BA in men: 1%

## insulin
Blood glucose level [9]
  Drop in the blood glucose level over 12 h: ~40%

From PMC6934657, “Transdermal delivery of nobiletin using ionic liquids” (Scientific Reports, 2019)
